Laboratory results: patent publication US11566057B2, “Long-acting co-agonists of the glucagon and GLP-1 receptors” (Merck Sharp & Dohme Corp., priority 2017, dated 2023)
Read-outs that look alike come from different tables or passages of the source. Numbered stars: 1 amine (or outer) side, 2 acyl side, 3 side chain; on linkers, the order of the positions; unused ones are H or OH. Square brackets hold non-standard residues; d marks the D form. Side chains are listed from the residue outwards. Peptide text beside a SMILES is read from it. * marks the point of attachment. Phe(4-CH2NH2) = NCc1ccc(C[C@H](N)C(=O)O)cc1; C18 diacid = O=C(O)CCCCCCCCCCCCCCCCC(=O)*; αMeW = C[C@](N)(Cc1c[nH]c2ccccc12)C(=O)O; C16 diacid = O=C(O)CCCCCCCCCCCCCCC(=O)*; γGlu = O=C(O)[C@H](CCC(=O)[*:2])N[*:1]; Met(O2) = CS(=O)(=O)CC[C@H](N)C(=O)O; AEEA = NCCOCCOCC(=O)O; Aib = CC(C)(N)C(=O)O

Experiments:
[1] = target: T1, human GCGR (Homo sapiens, UniProt P47871); assay: cAMP activity assay at the Glucagon receptor (GCGR); assay type: cell-based; settings: for hGCGR/hGLP1R (hTone): ratio of GCGR EC50 to GLP1R EC50
T1 construct: expressed in transfected cells; growth medium holds Blasticidin and Hygromycin
Outline: (§1)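 Peptides serially diluted from DMSO (10 points) and added to frozen-stock cells bearing human GLP1R (10,000 cells/well) or GCGR (30,000 cells/well), 1 h at RT, dark. EC50 by four-parameter logistic fit of HitHunter cAMPXS luminescence, read following overnight RT incubation.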

[2] = target: T2, human GLP1R (Homo sapiens, UniProt P43220); assay: cAMP activity assay at the GLP-1 receptor (GLP1R); assay type: cell-based
T2 construct: expressed in transfected cells; growth medium holds Blasticidin and Hygromycin
Outline: as §1

[3] = summary statement: EC50 at each of the glucagon and GLP-1 receptors, read-out: EC50 at the glucagon receptor
[4] = summary statement: EC50 at each of the glucagon and GLP-1 receptors, read-out: EC50 at the GLP-1 receptor
[5] = cells expressing human GLP1R, cAMP production, buffer with or without 20% human serum (not stated which), read-out: GLP1R EC50 human

T1 sequence (P47871 26-477): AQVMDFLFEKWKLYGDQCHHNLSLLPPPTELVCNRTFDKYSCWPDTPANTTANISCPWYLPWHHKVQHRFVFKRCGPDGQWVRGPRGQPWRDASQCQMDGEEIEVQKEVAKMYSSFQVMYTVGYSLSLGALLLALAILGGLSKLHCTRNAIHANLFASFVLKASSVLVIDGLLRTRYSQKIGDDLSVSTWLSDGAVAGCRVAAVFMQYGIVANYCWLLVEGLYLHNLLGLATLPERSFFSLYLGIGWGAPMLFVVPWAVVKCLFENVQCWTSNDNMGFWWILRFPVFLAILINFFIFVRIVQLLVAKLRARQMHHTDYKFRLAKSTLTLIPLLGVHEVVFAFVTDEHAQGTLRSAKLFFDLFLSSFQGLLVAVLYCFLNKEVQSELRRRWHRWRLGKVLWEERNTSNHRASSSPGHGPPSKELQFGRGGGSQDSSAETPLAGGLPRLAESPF
T2 sequence (P43220 24-463): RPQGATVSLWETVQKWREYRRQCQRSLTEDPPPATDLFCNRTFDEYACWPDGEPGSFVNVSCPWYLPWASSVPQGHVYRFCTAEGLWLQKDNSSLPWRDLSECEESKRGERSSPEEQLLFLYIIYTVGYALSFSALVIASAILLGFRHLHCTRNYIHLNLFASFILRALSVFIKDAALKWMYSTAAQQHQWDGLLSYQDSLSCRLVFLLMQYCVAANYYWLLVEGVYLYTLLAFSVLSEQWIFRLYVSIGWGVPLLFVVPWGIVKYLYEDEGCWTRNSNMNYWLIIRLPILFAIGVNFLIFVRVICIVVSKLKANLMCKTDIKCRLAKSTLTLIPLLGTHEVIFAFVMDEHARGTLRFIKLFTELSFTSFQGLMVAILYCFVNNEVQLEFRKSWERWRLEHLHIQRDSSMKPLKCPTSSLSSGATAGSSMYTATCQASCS

Compound	hGCGR/hGLP1R (hTone) [1]	EC50 [1, 3]	EC50 [2, 4]	EC50 [2, 5]	EC50 ([1]; cells expressing human GCGR, cAMP production, buffer with or without 20% human serum (not stated which), read-out: GCGR EC50 human)
CC(C)C[C@H](NC(=O)[C@H](Cc1ccc(O)cc1)NC(=O)[C@H](CCCCN)NC(=O)[C@H](CO)NC(=O)[C@H](Cc1ccc(O)cc1)NC(=O)[C@H](CC(=O)O)NC(=O)[C@H](CO)NC(=O)[C@@H](NC(=O)[C@H](Cc1ccccc1)NC(=O)[C@@H](NC(=O)CNC(=O)[C@H](CCC(N)=O)NC(=O)C(C)(C)NC(=O)[C@@H](N)Cc1c[nH]cn1)[C@@H](C)O)[C@@H](C)O)C(=O)N[C@@H](CC(=O)O)C(=O)N[C@@H](C)C(=O)N[C@@H](CCCNC(=N)N)C(=O)N[C@@H](C)C(=O)N[C@@H](C)C(=O)N[C@@H](CCCCNC(=O)COCCOCCNC(=O)COCCOCCNC(=O)CC[C@H](NC(=O)CCCCCCCCCCCCCCC(=O)O)C(=O)O)C(=O)N[C@@H](CC(=O)O)C(=O)N[C@@H](Cc1ccccc1)C(=O)N[C@H](C(=O)N[C@@H](CCC(N)=O)C(=O)N[C@@H](Cc1c[nH]c2ccccc12)C(=O)N[C@@H](CC(C)C)C(=O)N[C@@H](CCS(C)(=O)=O)C(=O)N[C@@H](CCC(=O)O)C(=O)N[C@H](C(N)=O)[C@@H](C)O)C(C)C [TP814] (H-H[Aib]QGTFTSDYSKYLDARAAK([AEEA-AEEA-γGlu-C16 diacid])DFVQWL[Met(O2)]ET-NH2; N-terminus assumed)	2.0	< 5 nM	< 5 nM		
CC(C)C[C@H](NC(=O)[C@H](Cc1ccc(O)cc1)NC(=O)[C@H](CCCCN)NC(=O)[C@H](CO)NC(=O)[C@H](Cc1ccc(O)cc1)NC(=O)[C@H](CC(=O)O)NC(=O)[C@H](CO)NC(=O)[C@@H](NC(=O)[C@H](Cc1ccccc1)NC(=O)[C@@H](NC(=O)CNC(=O)[C@H](CCC(N)=O)NC(=O)C(C)(C)NC(=O)[C@@H](N)Cc1c[nH]cn1)[C@@H](C)O)[C@@H](C)O)C(=O)N[C@@H](CC(=O)O)C(=O)N[C@@H](C)C(=O)N[C@@H](CCCNC(=N)N)C(=O)N[C@@H](C)C(=O)N[C@@H](C)C(=O)N[C@@H](CCCCNC(=O)COCCOCCNC(=O)COCCOCCNC(=O)CC[C@H](NC(=O)CCCCCCCCCCCCCCCCC(=O)O)C(=O)O)C(=O)N[C@@H](CC(=O)O)C(=O)N[C@@H](Cc1ccccc1)C(=O)N[C@H](C(=O)N[C@@H](CCC(N)=O)C(=O)N[C@@](C)(Cc1c[nH]c2ccccc12)C(=O)N[C@@H](CC(C)C)C(=O)N[C@@H](CCS(C)(=O)=O)C(=O)N[C@@H](CC(=O)O)C(=O)N[C@H](C(N)=O)[C@@H](C)O)C(C)C [TP631] (H-H[Aib]QGTFTSDYSKYLDARAAK([AEEA-AEEA-γGlu-C18 diacid])DFVQ[αMeW]L[Met(O2)]DT-NH2; N-terminus assumed)	1.3	< 5 nM	< 5 nM		
CC(C)C[C@H](NC(=O)[C@H](Cc1ccc(O)cc1)NC(=O)[C@H](CCCCN)NC(=O)[C@H](CO)NC(=O)[C@H](Cc1ccc(O)cc1)NC(=O)[C@H](CC(=O)O)NC(=O)[C@H](CO)NC(=O)[C@@H](NC(=O)[C@H](Cc1ccccc1)NC(=O)[C@@H](NC(=O)CNC(=O)[C@H](CCC(N)=O)NC(=O)C(C)(C)NC(=O)[C@@H](N)Cc1c[nH]cn1)[C@@H](C)O)[C@@H](C)O)C(=O)N[C@@H](CC(=O)O)C(=O)N[C@@H](C)C(=O)N[C@@H](CCCNC(=N)N)C(=O)N[C@@H](C)C(=O)N[C@@H](C)C(=O)N[C@@H](CCC(N)=O)C(=O)N[C@@H](CC(=O)O)C(=O)N[C@@H](Cc1ccccc1)C(=O)N[C@H](C(=O)N[C@@H](CCCCNC(=O)COCCOCCNC(=O)COCCOCCNC(=O)COCCOCCNC(=O)CC[C@H](NC(=O)CCCCCCCCCCCCCCCCC(=O)O)C(=O)O)C(=O)N[C@@H](Cc1c[nH]c2ccccc12)C(=O)N[C@@H](CC(C)C)C(=O)N[C@@H](CCS(C)(=O)=O)C(=O)N[C@@H](CC(=O)O)C(=O)N[C@H](C(N)=O)[C@@H](C)O)C(C)C [TP680] (H-H[Aib]QGTFTSDYSKYLDARAAQDFVK([AEEA-AEEA-AEEA-γGlu-C18 diacid])WL[Met(O2)]DT-NH2; N-terminus assumed)	3.0	< 5 nM	< 5 nM	0.19 nM	
CC(C)C[C@H](NC(=O)[C@H](Cc1ccc(O)cc1)NC(=O)[C@H](CCCCN)NC(=O)[C@H](CO)NC(=O)[C@H](Cc1ccc(O)cc1)NC(=O)[C@H](CC(=O)O)NC(=O)[C@H](CO)NC(=O)[C@@H](NC(=O)[C@H](Cc1ccccc1)NC(=O)[C@@H](NC(=O)CNC(=O)[C@H](CCC(N)=O)NC(=O)C(C)(C)NC(=O)[C@@H](N)Cc1c[nH]cn1)[C@@H](C)O)[C@@H](C)O)C(=O)N[C@@H](CC(=O)O)C(=O)N[C@@H](C)C(=O)N[C@@H](CCCNC(=N)N)C(=O)N[C@@H](C)C(=O)N[C@@H](C)C(=O)N[C@@H](Cc1ccc(CNC(=O)COCCOCCNC(=O)COCCOCCNC(=O)COCCOCCNC(=O)CC[C@H](NC(=O)CCCCCCCCCCCCCCCCC(=O)O)C(=O)O)cc1)C(=O)N[C@@H](CC(=O)O)C(=O)N[C@@H](Cc1ccccc1)C(=O)N[C@H](C(=O)N[C@@H](CCC(N)=O)C(=O)N[C@@H](Cc1c[nH]c2ccccc12)C(=O)N[C@@H](CC(C)C)C(=O)N[C@@H](CC(C)C)C(=O)N[C@@H](CC(=O)O)C(=O)N[C@H](C(N)=O)[C@@H](C)O)C(C)C [TP678] (H-H[Aib]QGTFTSDYSKYLDARAA[Phe(4-CH2NH2)]([AEEA-AEEA-AEEA-γGlu-C18 diacid])DFVQWLLDT-NH2; N-terminus assumed)	0.3	< 5 nM	< 5 nM		0.25 nM
CC(C)C[C@H](NC(=O)[C@H](Cc1ccc(O)cc1)NC(=O)[C@H](CCCCN)NC(=O)[C@H](CO)NC(=O)[C@H](Cc1ccc(O)cc1)NC(=O)[C@H](CC(=O)O)NC(=O)[C@H](CO)NC(=O)[C@@H](NC(=O)[C@H](Cc1ccccc1)NC(=O)[C@@H](NC(=O)CNC(=O)[C@H](CCC(N)=O)NC(=O)C(C)(C)NC(=O)[C@@H](N)Cc1c[nH]cn1)[C@@H](C)O)[C@@H](C)O)C(=O)N[C@@H](CC(=O)O)C(=O)N[C@@H](C)C(=O)N[C@@H](CCCNC(=N)N)C(=O)N[C@@H](C)C(=O)N[C@@H](C)C(=O)N[C@@H](CCCCNC(=O)COCCOCCNC(=O)COCCOCCNC(=O)CC[C@H](NC(=O)CCCCCCCCCCCCCCCCC(=O)O)C(=O)O)C(=O)N[C@@H](CC(=O)O)C(=O)N[C@@H](Cc1ccccc1)C(=O)N[C@H](C(=O)N[C@@H](CCC(=O)O)C(=O)N[C@@H](Cc1c[nH]c2ccccc12)C(=O)N[C@@H](CC(C)C)C(=O)N[C@@H](CCS(C)(=O)=O)C(=O)N[C@@H](CCCCN)C(=O)N[C@H](C(N)=O)[C@@H](C)O)C(C)C [TP705] (H-H[Aib]QGTFTSDYSKYLDARAAK([AEEA-AEEA-γGlu-C18 diacid])DFVEWL[Met(O2)]KT-NH2; N-terminus assumed)	3.6	< 5 nM	< 5 nM	0.41 nM	
CC(C)C[C@H](NC(=O)[C@H](Cc1c[nH]c2ccccc12)NC(=O)[C@H](CCCCNC(=O)COCCOCCNC(=O)COCCOCCNC(=O)CC[C@H](NC(=O)CCCCCCCCCCCCCCCCC(=O)O)C(=O)O)NC(=O)[C@@H](NC(=O)[C@H](Cc1ccccc1)NC(=O)[C@H](CC(=O)O)NC(=O)[C@H](CCC(N)=O)NC(=O)[C@H](C)NC(=O)[C@H](C)NC(=O)[C@H](CCCNC(=N)N)NC(=O)C(C)(C)NC(=O)[C@H](CC(=O)O)NC(=O)[C@H](CC(C)C)NC(=O)[C@H](Cc1ccc(O)cc1)NC(=O)[C@H](CCCCN)NC(=O)[C@H](CO)NC(=O)[C@H](Cc1ccc(O)cc1)NC(=O)[C@H](CC(=O)O)NC(=O)[C@H](CO)NC(=O)[C@@H](NC(=O)[C@H](Cc1ccccc1)NC(=O)[C@@H](NC(=O)CNC(=O)[C@H](CCC(N)=O)NC(=O)C(C)(C)NC(=O)[C@@H](N)Cc1c[nH]cn1)[C@@H](C)O)[C@@H](C)O)C(C)C)C(=O)N[C@@H](CCS(C)(=O)=O)C(=O)N[C@@H](CCC(=O)O)C(=O)N[C@H](C(N)=O)[C@@H](C)O [TP675] (H-H[Aib]QGTFTSDYSKYLD[Aib]RAAQDFVK([AEEA-AEEA-γGlu-C18 diacid])WL[Met(O2)]ET-NH2)	0.4	< 5 nM	< 5 nM	0.71 nM	
CC(C)C[C@H](NC(=O)[C@H](Cc1ccc(O)cc1)NC(=O)[C@H](CCCCN)NC(=O)[C@H](CO)NC(=O)[C@H](Cc1ccc(O)cc1)NC(=O)[C@H](CC(=O)O)NC(=O)[C@H](CO)NC(=O)[C@@H](NC(=O)[C@H](Cc1ccccc1)NC(=O)[C@@H](NC(=O)CNC(=O)[C@H](CCC(N)=O)NC(=O)C(C)(C)NC(=O)[C@@H](N)Cc1c[nH]cn1)[C@@H](C)O)[C@@H](C)O)C(=O)N[C@@H](CC(=O)O)C(=O)N[C@@H](C)C(=O)N[C@@H](CCCNC(=N)N)C(=O)N[C@@H](C)C(=O)N[C@@H](C)C(=O)N[C@@H](CCC(N)=O)C(=O)N[C@@H](Cc1ccc(CNC(=O)COCCOCCNC(=O)CC[C@H](NC(=O)CCCCCCCCCCCCCCCCC(=O)O)C(=O)O)cc1)C(=O)N[C@@H](Cc1ccccc1)C(=O)N[C@H](C(=O)N[C@@H](CCC(N)=O)C(=O)N[C@@H](Cc1c[nH]c2ccccc12)C(=O)N[C@@H](CC(C)C)C(=O)N[C@@H](CC(C)C)C(=O)N[C@@H](CC(=O)O)C(=O)N[C@H](C(N)=O)[C@@H](C)O)C(C)C [TP633] (H-H[Aib]QGTFTSDYSKYLDARAAQ[Phe(4-CH2NH2)]([AEEA-γGlu-C18 diacid])FVQWLLDT-NH2; N-terminus assumed)	0.7	< 5 nM	< 5 nM	0.19 nM	
